Laboratory results published in the supplement of paper PMC10307832.

Assays:
Assay in all cases: relative viability (nuclei count vs DMSO), 5 days (fraction); higher = more cells survive
[1] = compound: CC1=CC(=CC=C1)NC2=NC(=CS2)C3=CC=NC=C3 + Nc1ncn([C@H]2C[C@H](O)[C@@H](CO)O2)c(=O)n1 [Decitabine] (partner 2 µM)
Procedure, shortened: (§1)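 One day after seeding in 1536-well plates, lung cancer cell lines were dosed by pin tool. Dosing was either single-drug or a fixed anchor-drug dose plus five library-drug doses (not always all listed) in √10 steps. After 5 days, nuclei were stained in one fix-and-stain step and counted on 4× images, and relative viability is the nuclei count of treated wells over that of vehicle wells, given as the median of duplicate plates.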

[2] = compound: CC1=CC(=CC=C1)NC2=NC(=CS2)C3=CC=NC=C3 + CS(=O)(=O)N1CCN(Cc2cc3nc(-c4cccc5[nH]ncc45)nc(N4CCOCC4)c3s2)CC1 [Pictilisib] (partner 1 µM)
Procedure, shortened: as §1

Masitinib + AZD7762 = compound: Cc1ccc(NC(=O)c2ccc(CN3CCN(C)CC3)cc2)cc1Nc1nc(-c2cccnc2)cs1 [Masitinib] + NC(=O)Nc1cc(-c2cccc(F)c2)sc1C(=O)N[C@H]1CCCNC1 [AZD7762] (partner 0.2 µM)
Procedure, shortened: as §1

Masitinib + Trametinib = compound: Cc1ccc(NC(=O)c2ccc(CN3CCN(C)CC3)cc2)cc1Nc1nc(-c2cccnc2)cs1 [Masitinib] + CC(=O)Nc1cccc(-n2c(=O)n(C3CC3)c(=O)c3c(Nc4ccc(I)cc4F)n(C)c(=O)c(C)c32)c1 [Trametinib] (partner 0.02 µM)
Procedure, shortened: as §1

Cell Line | relative viability ([1]; first compound 0.08 µM) | relative viability ([1]; first compound 0.253 µM) | relative viability ([1]; first compound 0.8 µM) | relative viability ([1]; first compound 2.53 µM) | relative viability ([1]; first compound 8 µM) | relative viability ([2]; first compound 0.08 µM) | relative viability ([2]; first compound 0.253 µM) | relative viability ([2]; first compound 0.8 µM) | relative viability ([2]; first compound 2.53 µM) | relative viability ([2]; first compound 8 µM) | relative viability (Masitinib + AZD7762; first compound 0.01 µM) | relative viability (Masitinib + AZD7762; first compound 0.03162 µM) | relative viability (Masitinib + AZD7762; first compound 0.1 µM) | relative viability (Masitinib + AZD7762; first compound 0.3162 µM) | relative viability (Masitinib + AZD7762; first compound 1 µM) | relative viability (Masitinib + Trametinib; first compound 0.01 µM) | relative viability (Masitinib + Trametinib; first compound 0.03162 µM) | relative viability (Masitinib + Trametinib; first compound 0.1 µM) | relative viability (Masitinib + Trametinib; first compound 0.3162 µM) | relative viability (Masitinib + Trametinib; first compound 1 µM)
NCI-H3122 | 0.366 | 0.443 | 0.449 | 0.467 | 0.522 | 0.648 | 0.632 | 0.667 | 0.727 | 0.83 | 0.797 | 0.994 | 0.993 | 0.921 | 0.984 | 0.26 | 0.243 | 0.24 | 0.267 | 0.168
PC-3 [JPC-3] | 0.783 |  | 0.865 | 0.72 | 0.756 | 0.575 | 0.609 | 0.617 | 0.629 | 0.719 | 0.785 | 0.873 | 0.837 | 0.645 | 0.642 | 0.723 | 0.651 | 0.733 | 0.576 | 0.616
PC-14 | 0.174 | 0.186 | 0.187 | 0.177 | 0.217 | 0.719 | 0.666 | 0.634 | 0.752 | 0.598 | 0.349 | 0.242 | 0.384 | 0.366 | 0.235 | 0.774 | 0.634 | 0.909 | 0.729 | 0.821
RERF-LC-KJ | 0.675 | 0.64 | 0.62 | 0.522 | 0.387 | 0.509 | 0.49 | 0.541 | 0.472 | 0.497 | 0.781 | 0.934 | 0.949 | 0.906 | 0.92 | 0.769 | 0.836 | 0.834 | 0.809 | 0.763
